Source: publication PMC12381781, “Structural and functional insights into the selective inhibition of mutant tau aggregation by purpurin and oleocanthal in frontotemporal dementia” (Protein Science : A Publication of the Protein Society, 2025)
Entries after “also recorded” stand apart in the source; their conditions may differ.

Experiments:
[1] = target: R2R3 (P301L) tau peptide (Homo sapiens, UniProt P10636, P618L); assay: Atomic force microscopy of R2R3 (P301L) aggregates; assay type: biochemical; details: compound 10 μM, 48 h
Chain of R2R3 (P301L) tau peptide (P10636 592-653 P618L): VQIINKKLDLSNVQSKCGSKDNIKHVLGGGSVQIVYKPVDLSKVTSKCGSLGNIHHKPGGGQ
Procedure: (§1) Aggregates collected after 48 h of aggregation were processed for AFM analysis as described previously (Annadurai, Malina, Malohlava, et al., [2022]).

[2] = target: R2R3 (V287I) tau peptide (Homo sapiens, UniProt P10636, V604I); assay: Atomic force microscopy of R2R3 (V287I) aggregates; assay type: biochemical; details: compound 10 μM, 48 h
Chain of R2R3 (V287I) tau peptide (P10636 592-653 V604I): as the sequence (P10636 592-653 P618L) above, with V13I, L27P counted along it
Procedure: as §1

[3] = system: Tau RD P301S FRET Biosensor cells; assay: Biosensor cell seeding assay, aggregation products formed with compound (co-aggregation); assay type: cell-based; details: 100 nM transduced, 48 h
Procedure: Tau peptides were aggregated with or without PUR or OLC in a 7.4 pH aggregation buffer without ThT. After 48 h, the contents of each well were pooled to a final total volume of 120 μL. The concentration of the pooled Aggregation Reaction Products was measured using the Pierce™ BCA Protein Assay Kit (Thermo Fisher Scientific Inc., Cat. # 23225). The reaction products were standardized for cell transduction to a final concentration of 100 nM for both control and drug‐treated samples. The pooled aggregation mixture was sonicated using a Branson Ultrasonic™ Sonifier Cup Horns (Marshall Scientific, Hampton, NH, USA) at 30% amplitude (15 s ON and 15 s OFF for 1 min) to fragment larger aggregates into smaller ones, facilitating consistent transduction.
Tau RD P301S FRET Biosensor cells were plated at 5 × 10^3 cells per well in PhenoPlate 384‐well, black, optically clear flat‐bottom plates (Revvity; Part # 6057302) pre‐coated with 50 μg/mL Poly‐ᴅ‐Lysine (Sigma‐Aldrich, Cat. # P6407). After plating, cells were incubated for 30 min at room temperature to promote better cell spreading before returning the plates to the incubator.
The next day, cells were transduced with 100 nM of aggregation mixture, which were either: (i) prepared in the absence (control) or presence of 10 μM PUR or OLC for co‐aggregation studies (Figure 5), or (ii) prepared exclusively in the absence of compounds for post‐transduction treatment studies (Figure 6). The aggregation mixtures were premixed with 0.2 μL per well TurboFect™ Transfection Reagent (Thermo Fisher Scientific Inc., Cat. # R0533) in 10 μL Opti‐MEM™ (Thermo Fisher Scientific Inc., Cat. #11058021) and added to cells.
For co‐aggregation studies (Figure 5), cells were cultured for 48 h after transduction before processing for imaging. For post‐transduction treatment studies (Figure 6), cells were cultured for 24 h following transduction, then treated with PUR or OLC at concentrations ranging from 0 to 10 μM, and incubated for an additional 24 h.
In both experiments (Figures 5 and 6), cells were fixed after a total of 48 h with 2% paraformaldehyde (Electron Microscopy Services, Cat. #15714‐1 L) for 10 min at room temperature, washed once with 1× PBS, and stained with 10 μM Hoechst‐33342 nuclear dye (Invitrogen, Cat. #H21492) for 10–15 min. To preserve samples for imaging, 1% glycerol in deionized water was added to each well.
Cells were imaged on a Cell Voyager 7000S high‐content imaging system (Yokogawa, Tokyo, Japan) with a 20× objective. CFP/YFP inclusions of seeded tau were detected using a 488 nm laser line (Ex = 460–490 nm, Em = 500–550 nm), and Hoechst‐stained nuclei were detected using a 405 nm laser line (Ex = 360–400 nm, Em = 410–480 nm). At least 10–15 focal areas per well were imaged for each replicate. Image analysis was performed using Signals Image Artist (Revvity) to quantify the number of cells (Hoechst‐stained nuclei) and intracellular CFP/YFP inclusions. Total inclusions per well were normalized to cell confluence and are presented as normalized seeding for graphing.

[4] = system: Tau Biosensor cells; assay: MTS cytotoxicity assay, Tau Biosensor cells; assay type: cell-based; details: 0-100 µM, 72 h
Procedure: Figure S16. Cytotoxic activity of PUR and OLC. Tau Biosensor and CCRF-CEM (human leukemic lymphoblast) cells were treated with increasing concentrations (0-100 µM) of PUR and OLC for 72 h. Cell viability was then assessed using the MTS assay. CCRF-CEM (human leukemic lymphoblasts) cells, known for their high sensitivity to cytotoxic agents ^1, were used as positive controls. […] Calculated IC50 values are indicated in the graphs. Mean ± SEM (n = 3).

[5] = R2R3 N279K aggregated with 10 μM compound
[6] = R2R3 P301L aggregated with 10 μM compound
[7] = R2R3 V287I aggregated with 10 μM compound
[8] = R2R3 WT aggregated with 10 μM compound

Structure (SMILES): C/C=C(/C=O)[C@@H](CC=O)CC(=O)OCCc1ccc(O)cc1 [OLC, oleocanthal]
- AFM morphology of aggregates [1]: only sparse fibrils
- AFM morphology of aggregates [2]: no fibrillar or aggregated structures were detected
- intracellular seeding (CFP/YFP inclusions) by aggregation products [3, 5]: abolished the formation of species capable of inducing intracellular seeding; also recorded: significantly reduced seeding
- intracellular seeding (CFP/YFP inclusions) by aggregation products [3, 6]: abolished the formation of species capable of inducing intracellular seeding; also recorded: significantly reduced seeding
- intracellular seeding (CFP/YFP inclusions) by aggregation products [3, 7]: abolished the formation of species capable of inducing intracellular seeding; also recorded: near‐complete inhibition of seeding
- intracellular seeding (CFP/YFP inclusions) by aggregation products [3, 8]: effectively abolishing intracellular seeding
- cytotoxicity, cell viability (MTS) [4]: neither PUR nor OLC was cytotoxic; also recorded: non‐toxic

Structure (SMILES): O=C1c2ccccc2C(=O)c2c(O)c(O)cc(O)c21 [PUR, purpurin]
- AFM morphology of aggregates [1]: only sparse fibrils
- AFM morphology of aggregates [2]: no fibrillar or aggregated structures were detected
- intracellular seeding (CFP/YFP inclusions) by aggregation products [3, 5]: abolished the formation of species capable of inducing intracellular seeding; also recorded: significantly reduced seeding
- intracellular seeding (CFP/YFP inclusions) by aggregation products [3, 6]: abolished the formation of species capable of inducing intracellular seeding; also recorded: significantly reduced seeding
- intracellular seeding (CFP/YFP inclusions) by aggregation products [3, 7]: abolished the formation of species capable of inducing intracellular seeding; also recorded: near‐complete inhibition of seeding
- intracellular seeding (CFP/YFP inclusions) by aggregation products [3, 8]: did not affect the seeding competency
- cytotoxicity, cell viability (MTS) [4]: neither PUR nor OLC was cytotoxic; also recorded: non‐toxic
